# According to publication PMC2737470 (Circulation research, 2009):
# Assays:
# [1] = target: carboxyl terminal domain of Cx43 (Cx43CT), recombinant; test: SPR
# [2] = test system: N2a cell pairs expressing Cx43; test: Patch clamp, octanol-induced uncoupling of Cx43 channels; assay type: cell-based
# [3] = test system: carboxyl terminal domain of Cx43 (Cx43CT); test: Surface plasmon resonance, peptide binding to immobilised Cx43CT; details: molecular weight-normalized responses, same sensor chip
# recombinant Cx43CT = test: NMR 15N-HSQC of Cx43CT titrated with peptide; assay type: binding; details: Cx43CT titrated with peptide to 1:500 and 1:900 molar ratio
# [4] = test system: N2a cells expressing Cx40; test: Patch clamp, octanol-induced uncoupling of Cx40 channels; assay type: cell-based; details: N2a cells expressing Cx40, peptide in pipette
# recombinant Cx40CT = test: Surface plasmon resonance with recombinant Cx40CT; assay type: binding; details: Online Figure IV
molecule,measurement,setting,value
CyRP-71 (cyclo-RRPPYRQ as printed in Table 1) (peptide),SPR response amplitude normalized by molecular weight,[1],33.9 a.u.
RRNYRRNY,cell pairs in which the peptide failed to prevent uncoupling,"[2]; octanol-induced uncoupling, peptide in pipette",approximately 40%
same,cell pairs remaining coupled at the end of octanol exposure (number of pairs),"[2]; peptide in patch pipette (100 μM), 10 minutes of octanol",four of the six
Cyclo-RRPPYRQ (head to tail) [CyRP-71],SPR response relative to CyRP-62 (times higher),[3],9 times
same,interaction with Cx43CT by 15N-HSQC resonance shifts (in words),recombinant Cx43CT,confirm the binding of Cx43CT to CyRP-71
same,effect on time course of octanol-induced uncoupling in Cx40 (in words),[4],did not modify the time course
same,SPR response with Cx40CT (in words),recombinant Cx40CT,only a minor SPR deflection
Cyclo-RRPPYQ (head to tail) [CyRP-62],cells remaining coupled after ten minutes of octanol superfusion,[2]; peptide 100 μM in patch pipette,100%
"RRPPYQ (backbone-cyclized (cyclo-, Q6 joined to R1)) [CyRP-62 (cyclo-RRPPYQ)]",SPR response amplitude normalized by molecular weight (125 μM),[1],3.71 a.u.
